Measurements: patent publication US11465998B2, “Therapeutic compounds and methods of use thereof” (Regents of the University of Minnesota, priority 2019, dated 2022)
Entries after “also recorded” stand apart in the source; their conditions may differ. Like-named read-outs stand apart in the source and are kept apart here.

Target: T1, human NOD2 (Homo sapiens, UniProt Q9HC29)
T1 construct: host or cells: HEK293
Test: human NOD2 specific reporter gene assay (NF-κB induction)
Format: cell-based
Protocol: Example 5: High-throughput screens in porcine blood: Curated compound collections were obtained from the Institute for Therapeutics Discovery & Development at the University of Minnesota. Compound transfers from source (80 nL of 10 mM stocks) to assay plates were performed using an Echo 550 acoustic liquid handler (Labcyte, Sunnyvale, Calif.). For most libraries, a target final concentration of 10 μM of compound (in a final volume of 80 μL for the assay described below) was achieved. Compound plates were hermetically sealed and stored at −80° C. until used. Fresh, heparin-anticoagulated porcine blood from healthy animals were obtained under USDA supervision from Midwest Research Swine, LLC (Glencoe, Minn.). 80 μL of hematocrit-enriched porcine blood (low-speed centrifugation, followed by resuspension in DMEM supplemented with 10% fetal bovine serum) was added to compound plates and incubated for 15 h. The following day, the plates were briefly centrifuged (100 g, 10 min), and supernatants were transferred using an automated ViaFlow 384 transfer device (Integra Biosciences Corp., Hudson, N.H.) to assay plates containing of 10^6 cells/mL of each of the following NF-κB/secreted alkaline phosphatase reporter cells suspended in HEK-Blue Detection Media: human IFN-α/β, human IFN-γ, human TNF-α/IL-1β (InvivoGen, San Diego, Calif.). NF-κB translocation was assayed spectrophotometrically using an alkaline phosphatase-specific chromogen (present in HEK-detection medium as supplied by InvivoGen) at 620 nm using a SpectraMax M4 multimode microplate reader (Molecular Devices, Sunnyvale, Calif.). Z′ factors were computed for each TLR/NOD-specific signals. Hits were defined as signals >4σ (in-plate standard deviations for test compounds above negative control means), were deconvoluted in full dose-response assays in human TLR-2/-3/-4/-5/-7/-8/-9 and NOD-1/NOD-2-specific reporter cells in liquid handler-assisted assay formats as described previously. Example 6: Murine knockout cell-lines: The following reagents were obtained through BEI Resources, NIAID, NIH: the microglial cell line derived from MAL/MyD88 double knockout Mice (NR-9904), and the macrophage cell line derived from TRIF/TRAM knockout mice (NR-9568). Example 7: Human NOD1/2-specific reporter gene assays (NF-κB induction), and TLR-2/-3/-4/-5/-7/-8/-9/STING/ISG counter-screens: The induction of NF-κB was quantified using human TLR-2/-3/-4/-5/-7/-8/-9/NOD-1/NOD-2/STING/ISG-specific, rapid-throughput, liquid handler-assisted reporter gene assays as previously described by us (Wu, W. et al. J. Med. Chem. 2010, 53, 3198-3213; Shukla, N. M. et al. J. Med. Chem. 2010, 53, 4450-4465; Agnihotri, G. et al. J. Med. Chem. 2011, 54, 1490-1510 and Ukani, R. et al. Bioorg. Med. Chem. Lett. 2012, 22, 293-295). HEK293 cells stably co-transfected with the appropriate hTLR and secreted alkaline phosphatase (sAP) were maintained in HEK-Blue™ Selection medium. Stable expression of secreted alkaline phosphatase (sAP) under control of NF-κB/AP-1/IRF promoters is inducible by appropriate innate immune stimuli, and extracellular sAP in the supernatant is proportional to NF-κB/IRF induction. Reporter cells were incubated at a density of ˜10^5 cells/ml in a volume of 80 μl/well, in 384-well, flat-bottomed, cell culture-treated microtiter plates in the presence of graded concentrations of stimuli. sAP was assayed spectrophotometrically using an alkaline phosphatase-specific chromogen (present in HEK-detection medium as supplied by InvivoGen) at 620 nm. Example 8: Multiplexed immunoassays for human cytokines: Fresh human peripheral blood mononuclear cells (hPBMC) were isolated from human blood obtained by venipuncture in Cell Preparation Tubes (CPT, Beckton-Dickinson) with informed consent and as per guidelines approved by the University of Minnesota Human Subjects Experimentation Committee. Aliquots of PBMCs or THP-1 cells (10^5 cells in 100 μL/well) were stimulated for 16 h with graded concentrations of test compounds. […]

[1] = human NOD2 specific reporter gene assay, arithmetic mean of quadruplicate samples, NA* indicates inactive under the tested conditions, read-out: hNOD2 Agonistic Activity (μM), EC50

T1 sequence (Q9HC29 whole entry): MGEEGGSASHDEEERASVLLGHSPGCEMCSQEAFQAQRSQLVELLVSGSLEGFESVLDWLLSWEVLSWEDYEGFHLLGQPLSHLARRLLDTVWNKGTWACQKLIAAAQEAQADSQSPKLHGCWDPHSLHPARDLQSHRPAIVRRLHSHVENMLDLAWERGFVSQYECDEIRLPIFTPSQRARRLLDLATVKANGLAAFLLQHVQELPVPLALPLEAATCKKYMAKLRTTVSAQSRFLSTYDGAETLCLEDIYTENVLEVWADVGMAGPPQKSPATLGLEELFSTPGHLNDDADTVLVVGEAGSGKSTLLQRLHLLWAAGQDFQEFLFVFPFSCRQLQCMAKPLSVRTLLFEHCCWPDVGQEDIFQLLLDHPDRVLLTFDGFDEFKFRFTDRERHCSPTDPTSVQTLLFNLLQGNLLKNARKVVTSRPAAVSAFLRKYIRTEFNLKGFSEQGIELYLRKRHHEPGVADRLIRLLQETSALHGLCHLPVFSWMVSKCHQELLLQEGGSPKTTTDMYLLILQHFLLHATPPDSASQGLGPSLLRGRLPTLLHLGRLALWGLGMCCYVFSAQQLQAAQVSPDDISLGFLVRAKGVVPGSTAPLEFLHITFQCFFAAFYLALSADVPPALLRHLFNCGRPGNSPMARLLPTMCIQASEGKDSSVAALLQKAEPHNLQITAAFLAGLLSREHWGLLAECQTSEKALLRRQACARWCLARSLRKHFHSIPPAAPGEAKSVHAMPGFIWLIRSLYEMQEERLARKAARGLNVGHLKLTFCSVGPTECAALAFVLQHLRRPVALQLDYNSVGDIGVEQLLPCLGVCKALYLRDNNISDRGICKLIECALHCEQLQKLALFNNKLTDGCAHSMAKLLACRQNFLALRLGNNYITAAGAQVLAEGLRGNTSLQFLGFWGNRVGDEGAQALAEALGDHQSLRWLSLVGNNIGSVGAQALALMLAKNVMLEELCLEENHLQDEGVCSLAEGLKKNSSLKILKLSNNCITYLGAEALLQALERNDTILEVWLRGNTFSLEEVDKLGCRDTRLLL

Row | Structure (SMILES) | hNOD2-agonistic activity (in words) (human NOD2 reporter gene assay) | EC50 [1] | EC50 (human NOD2 reporter gene assay, read-out: EC50 values, human NOD2 agonistic potency)
1 | CNC(=O)c1cc(-n2cnc3ccccc32)cs1 [Compound 2d, 4-(1H-Benzo[d]imidazol-1-yl)-N-methylthiophene-2-carboxamide] | inactive |  | 
2 | O=C(NNc1ccccc1)c1cc(-n2cnc3ccccc32)cs1 [Compound 2h, 4-(1H-Benzo[d]imidazol-1-yl)-N′-phenylthiophene-2-carbohydrazide] | inactive |  | 
3 | CCCCc1nc2cnccc2n1-c1csc(C(N)=O)c1 [Compound 18b, 4-(2-Butyl-1H-imidazo[4,5-c]pyridin-1-yl)thiophene-2-carboxamide] | weakly active | 5.65 µM | 
4 | N#Cc1cc(-n2cnc3ccccc32)cs1 [Compound 4a, 4-(1H-Benzo[d]imidazol-1-yl)thiophene-2-carbonitrile] | inactive |  | 
5 | CCCc1nc2ccccc2n1-c1csc(C(N)=O)c1 [Compound 7c, 4-(2-Propyl-1H-benzo[d]imidazol-1-yl)thiophene-2-carboxamide] | lower potency than the hit compound | 8.26 µM | 
6 | Cc1nc2ccccc2n1-c1csc(C(N)=O)c1 [Compound 7a, 4-(2-Methyl-1H-benzo[d]imidazol-1-yl)thiophene-2-carboxamide] | lower potency than the hit compound | 15.7 µM | 
7 | CC(C)CCc1nc2ccccc2n1-c1csc(C(N)=O)c1 [Compound 7m, 4-(2-Isopentyl-1H-benzo[d]imidazol-1-yl)thiophene-2-carboxamide] | potencies very similar to the butyl analogue (7d) | 2.91 µM | 
8 | O=C(NO)c1cc(-n2cnc3ccccc32)cs1 [Compound 2c, 4-(1H-Benzo[d]imidazol-1-yl)-N-hydroxythiophene-2-carboxamide] | inactive |  | 
9 | CCCCNC(=O)c1cc(-n2cnc3ccccc32)cs1 [Compound 2e, 4-(1H-Benzo[d]imidazol-1-yl)-N-butylthiophene-2-carboxamide] | inactive |  | 
10 | CCCCCc1nc2ccccc2n1-c1csc(C(=O)NC)c1 [Compound 11c, N-Methyl-4-(2-pentyl-1H-benzo[d]imidazol-1-yl)thiophene-2-carboxamide] | weak activity | 7.02 µM | 
11 | NC(=O)c1nc(-n2cnc3ccccc32)cs1 [Compound 3f, 4-(1H-Benzo[d]imidazol-1-yl)thiazole-2-carboxamide] | inactive; also recorded: devoid of activity |  | 
12 | NC(=O)c1cncc(-n2cnc3ccccc32)c1 [Compound 3l, 5-(1H-Benzo[d]imidazol-1-yl)nicotinamide] | devoid of activity |  | 
13 | NC(=O)c1cc(-n2cnc3c(N)nccc32)cs1 [Compound 19a, 4-(4-Amino-1H-imidazo[4,5-c]pyridin-1-yl)thiophene-2-carboxamide] | inactive |  | 
14 | NC(=O)c1cc(-n2cnc3ccccc32)c[nH]1 [Compound 3d, 4-(1H-Benzo[d]imidazol-1-yl)-1H-pyrrole-2-carboxamide] | devoid of activity |  | 
15 | NC(=O)c1sccc1-n1cnc2ccccc21 [Compound 3c, 3-(1H-Benzo[d]imidazol-1-yl)thiophene-2-carboxamide] | inactive |  | 
16 | O=C(Nc1ccccc1)c1cc(-n2cnc3ccccc32)cs1 [Compound 2f, 4-(1H-Benzo[d]imidazol-1-yl)-N-phenylthiophene-2-carboxamide] | inactive |  | 
17 | CCCCc1nc2c(N)nccc2n1-c1csc(C(N)=O)c1 [Compound 19b, 4-(4-Amino-2-butyl-1H-imidazo[4,5-c]pyridin-1-yl)thiophene-2-carboxamide] | weakly active | 4.08 µM | 

Row | Structure (SMILES) | hNOD2-agonistic activity (in words) (human NOD2 reporter gene assay) | EC50 [1] | EC50 (human NOD2 reporter gene assay, read-out: EC50 values, human NOD2 agonistic potency)
18 | CCCCCc1nc2ccccc2n1-c1csc(C(N)=O)n1 [Compound 14, 4-(2-Pentyl-1H-benzo[d]imidazol-1-yl)thiazole-2-carboxamide] | weakly active | 7.39 µM | 
19 | CCCCCCCCCc1nc2ccccc2n1-c1csc(C(N)=O)c1 [Compound 7h, 4-(2-Nonyl-1H-benzo[d]imidazol-1-yl)thiophene-2-carboxamide] |  | 3.06 µM | 
20 | NC(=O)c1ccc(-n2cnc3ccccc32)cc1 [Compound 3j, 4-(1H-Benzo[d]imidazol-1-yl)benzamide] | devoid of activity |  | 
21 | CCCCCCCCc1nc2ccccc2n1-c1csc(C(N)=O)c1 [Compound 7g, 4-(2-Octyl-1H-benzo[d]imidazol-1-yl)thiophene-2-carboxamide] |  | 2.2 µM | 
22 | CCCCCCCCCCCc1nc2ccccc2n1-c1csc(C(N)=O)c1 [Compound 7i, 4-(2-Undecyl-1H-benzo[d]imidazol-1-yl)thiophene-2-carboxamide] |  | 5.81 µM | 
23 | CCCCCCCCCCCCCc1nc2ccccc2n1-c1csc(C(N)=O)c1 [Compound 7j, 4-(2-Tridecyl-1H-benzo[d]imidazol-1-yl)thiophene-2-carboxamide] | inactive |  | 
24 | NC(=O)c1csc(-n2cnc3ccccc32)n1 [Compound 3h, 2-(1H-Benzo[d]imidazol-1-yl)thiazole-4-carboxamide] | devoid of activity |  | 
25 | NNC(=O)c1cc(-n2cnc3ccccc32)cs1 [Compound 2b, 4-(1H-Benzo[d]imidazol-1-yl)thiophene-2-carbohydrazide] | inactive |  | 
26 | NC(=O)c1cscc1-n1cnc2ccccc21 [Compound 3b, 4-(1H-Benzo[d]imidazol-1-yl)thiophene-3-carboxamide] | inactive |  | 
27 | CCCCc1nc2ccccc2n1-c1csc(C(N)=O)c1 [Compound 7d, 4-(2-Butyl-1H-benzo[d]imidazol-1-yl)thiophene-2-carboxamide] |  | 2.07 µM | 
28 | CCc1nc2ccccc2n1-c1csc(C(N)=O)c1 [Compound 7b, 4-(2-Ethyl-1H-benzo[d]imidazol-1-yl)thiophene-2-carboxamide] | lower potency than the hit compound | 13.2 µM | 
29 | NC(=O)c1cc(-n2cnc3cnccc32)cs1 [Compound 18a, 4-(1H-Imidazo[4,5-c]pyridin-1-yl)thiophene-2-carboxamide] | inactive |  | 
30 | CCCCCc1nc2ccccc2n1-c1csc(C(=O)NO)c1 [Compound 11b, N-Hydroxy-4-(2-pentyl-1H-benzo[d]imidazol-1-yl)thiophene-2-carboxamide] | weak activity | 1.84 µM | 
31 | NC(=O)c1coc(-n2cnc3ccccc32)n1 [Compound 3e, 2-(1H-Benzo[d]imidazol-1-yl)oxazole-4-carboxamide] | devoid of activity |  | 
32 | NCc1ccc(NC(=O)c2cc(-n3cnc4ccccc43)cs2)cc1 [Compound 2n, N-(4-(Aminomethyl)phenyl)-4-(1H-benzo[d]imidazol-1-yl)thiophene-2-carboxamide] | inactive |  | 
33 | NC(=O)c1cc(-n2cnc3ccccc32)cs1 [Compound 2a, 4-(1H-Benzo[d]imidazol-1-yl)thiophene-2-carboxamide] | Weak hNOD2-agonistic activity |  | 7.26 µM
